{"source": "patent US20230263798A1", "about": "“COMPOSITIONS AND METHODS FOR TREATING THERAPY RESISTANT CANCER” (The General Hospital Corporation, priority 2020, published 2023)", "key": {"METTL3 [1]": {"system": "METTL3", "assay": "Western blot analysis of METTL3 in MCF7 cells", "type": "cell-based", "details": "Western blot; for METTL3 level: MCF7 cells, agent alone vs untreated/buffer", "text": "(§1) The Western blot includes samples with control shRNA or shMETTL3. […] Tubulin and Histone serve as Western blot loading controls. Data are average of 3 replicates +/-SEM. See also FIGS. 2A-2G.\n(§2) Data are average of 3 replicates +/-SEM. Tubulin serves as the loading control.\n(§3) Tubulin and Histone serve as Western blot loading controls. Data are average of 3 replicates +/-SEM. See also FIGS. 4A-4H.\n(§4) Actin and Tubulin are loading controls for Western blots. Data are average of 3 replicates +/-SEM.\n(§5) FIGS. 8C and 8D show Western blot analysis of PARP1, phospho-elF2α, METTL3 with doxorubicin or Sal003 treatment. […] 500 nM Doxorubicin treated MCF7 cells were co-treated with 6uM of Enzastaurin or DMSO buffer. […] Data are average of 3 replicates +/-SEM.\n(§6) To determine the mechanisms of specific mRNA expression in chemosurviving cancer cells, we examined RNA binding regulators in chemosurviving MCF7 breast cancer cells, isolated after doxorubicin chemotherapy treatment."}, "METTL14 [2]": {"system": "METTL14", "assay": "Western blot analysis of METTL14 in MCF7 cells", "type": "cell-based", "details": "for METTL14 level: MCF7 cells, agent alone vs untreated/buffer, Western blot", "text": "as §3, §4\n(§7) Western blot is shown of other RNA binding proteins that increase in mass spectrometry data. […] FIGS. 6J and 6K show Hexim, PPM1G and HuR increase in chemotreated patient samples and on doxorubicin treatment.\n(§8) If METTL3 is increased by Sal003, then m6A on RNA should increase in such conditions."}, "phospho-elF2α [3]": {"system": "phospho-elF2α", "assay": "Western blot of elF2α phosphorylation in MCF7 cells", "type": "cell-based", "details": "MCF7 cells, agent alone, Western blot", "experimental": "as §5"}, "ATF4": {"system": "ATF4", "assay": "Western analysis of ATF4 (ISR response gene)", "type": "cell-based", "text": "as §8"}, "m6A on RNA": {"system": "m6A on RNA", "assay": "m6A on ribosomal RNA depleted RNA (dot blot, 2D-TLC)", "type": "cell-based", "details": "ribosomal RNA depleted RNA from treated vs untreated MCF7 cells; dot blot or 2D-TLC", "experimental": "The Western blot includes samples with control shRNA or shMETTL3. […] Tubulin and Histone serve as Western blot loading controls. Data are average of 3 replicates +/-SEM. See also FIGS. 2A-2G. […]\nTo test whether the increased m6A modification enzymes lead to increased m6A modification on RNA, ribosomal RNA depleted RNA from doxorubicin treated cells compared to untreated cells by dot blot analyses was tested. […] Consistent with decreased METTL3 upon knockdown, the dot blot signal is depleted when METTL3 is knocked down (FIG. 1B). Second, RNA from doxorubicin treated cells for m6A by two-dimensional-thin layer chromatography separation (2D-TLC) was performed (H. Grosjean, G. Keith, L. Droogmans, Detection and quantification of modified nucleotides in RNA using thin-layer chromatography. Methods in molecular biology (Clifton, N.J.) 265, 357-391 (2004))."}, "METTL3 mRNA": {"system": "METTL3 mRNA", "assay": "METTL3 mRNA level and translation (qPCR, polysome fractionation, nascent amino acid labeling)", "type": "cell-based", "details": "for METTL3 mRNA on polysomes compared to monosomes: treated vs buffer treated cells, polysome fractionation and qPCR", "experimental": "as §3, §4\nTo verify that the increase in METTL3 was at the translation level, polysome analysis was conducted first. […] We next verified increased polysome association of METTL3 mRNA with Y10B antibody immunoprecipitation in doxorubicin treated and in Sal003 cells compared to buffer treated cells (FIGS. 3I and 4F)."}, "PARP1": {"system": "PARP1", "assay": "Western blot analysis of PARP1", "type": "cell-based", "details": "treated cells", "experimental": "as §5\nConsistently, doxorubicin treated cells are sensitive to PARP inhibitors, such as Talazoparib (BMN-673, FIG. 8B)."}, "METTL3 [4]": {"system": "METTL3", "assay": "Western blot of METTL3 in THP1 cells", "type": "cell-based", "details": "1 µM Cytarabine over time"}, "phospho-elF2α [5]": {"system": "phospho-elF2α", "assay": "Western blot of elF2α phosphorylation in THP1 cells", "type": "cell-based", "details": "1 µM Cytarabine over time"}, "Hexim1": {"system": "Hexim1", "assay": "Western blot of Hexim1", "type": "cell-based", "details": "treated cells", "text": "as §7\nOther RNA binding proteins such as HEXIM1 and PPM1G that increase in doxorubicin surviving cells also associate with METTL3 mRNA and with HuR. The indirect associated protein, Hexim1 is a transcription regulator but also associates with other complexes and RNAs and promotes mRNA stability under nucleotide stress. […] The phosphatase PPM1G is known to associate with Hexim1 and is activated by DNA damage/ATM signaling upon chemotherapy treatment, and upon PI3K/Akt inhibition, consistent with these conditions where METTL3 increases. On Akt inhibition, PPM1G dephosphorylates 4EBP; this inhibits canonical translation, consistent with specific mRNA translation elicited in these conditions.\nTherefore, we tested whether Hexim1 was required for METTL3 levels."}, "METTL3 [6]": {"system": "METTL3", "assay": "Western blot of METTL3 in BT549 cells", "type": "cell-based", "details": "over time of treatment"}, "phospho-elF2α [7]": {"system": "phospho-elF2α", "assay": "Western blot of elF2α phosphorylation in BT549 cells", "type": "cell-based", "details": "over time of treatment", "experimental": "as §2\nas §6, with “treatment. […] The increase observed is transient and is not observed at 48 h of treatment (FIG. 2A).” for “treatment.”"}, "METTL3 [8]": {"system": "METTL3", "assay": "Western blot of METTL3 in breast cancer patient samples grown in 3D cultures", "type": "cell-based", "details": "hormone positive breast cancer patient samples grown as tumor spheres", "text": "as §1\nAs METTL3 increases in chemosurviving cells and increases m6A on RNA, we tested whether METTL3 increase is needed for chemosurvival by depleting METTL3 or overexpressing METTL3 or a catalytically defective METTL3 (CD-M3) mutant and then tested these cells for doxorubicin survival."}, "METTL3 [9]": {"system": "METTL3", "assay": "Western blot of METTL3 in patient-derived xenografts treated in vivo", "details": "hormone positive breast cancer patient derived xenografts, 2-1 0 mg/kg doxorubicin in vivo"}, "METTL3 5′UTR": {"system": "METTL3 5′UTR", "assay": "Firefly luciferase reporter bearing the 5′UTR of METTL3", "type": "cell-based", "details": "doxorubicin treated vs untreated cells, normalized to Renilla", "text": "FIGS. 5A-5I show HuR and associated translation initiation factors promote METTL3 translation in doxorubicin resistant cells. […] Tubulin is the loading control for Western blots. Data are average of 3 replicates +/-SEM. See also FIGS. 6A-6K.\nTo test if METTL3 mRNA encodes for cis-acting elements that direct its translation upregulation in doxorubicin-treated cells, we constructed Luciferase reporters bearing METTL3 mRNA 5′UTR and 3′UTR, or their reverse sequences or vector sequence as controls. We tested these reporters and their controls in untreated and doxorubicin treated cells. […] Importantly, RNA levels of the 5′UTR reporter remained unaffected between doxorubicin treated compared to untreated cells, and compared to reverse or vector reporters, indicating translation control."}, "HuR": {"system": "HuR", "assay": "Western blot of HuR", "type": "cell-based", "details": "over time of doxorubicin treatment", "text": "as §7"}, "METTL14 [10]": {"system": "METTL14", "assay": "Western blot of METTL14 in breast cancer patient samples grown as tumor spheres", "type": "cell-based"}, "MCF7 cells": {"system": "MCF7 cells", "assay": "Doxorubicin chemosurvival of MCF7 cells", "type": "cell-based", "details": "500 nM Doxorubicin treated MCF7 cells co-treated with agent (5 uM Trazodone, 5 uM ISRIB, 6uM Enzastaurin) vs DMSO buffer", "experimental": "This was tested in METTL3 overexpression cells compared to CD-M3 cells compared to control Actin mRNA by qPCR. […] 500 nM Doxorubicin treated MCF7 cells were co-treated with (i) 5 uM of Trazodone, (ii) 5 uM of ISRIB, or DMSO buffer. […] Data are average of 3 replicates +/-SEM. Actin and Tubulin are loading controls for Western blots. See also FIG. 8A-8l.\nas §5"}, "[11]": {"system": "CD14+ monocytes, CD8+ T cells, and NK (NK92) cells", "assay": "Co-culture of treated cancer cells with immune cells", "type": "cell-based", "details": "untreated or doxorubicin or gemcitabine treated cells plus agent", "text": "APOBEC3B would lead to neoepitopes that could trigger the immune system. However, this is not readily seen as inhibitors of immune cells such as TGF-β that inhibits NK cells are increased in doxorubicin treated breast cancer cells. […] M6A also downregulates antiviral innate immune response while promoting ADAR1 that suppresses antiviral immunity. Therefore, inhibition of METTL3 would activate them."}, "[12]": {"details": "doxorubicin treated cells plus agent vs buffer treated"}}, "data": [{"compound": "O=C(/C=C/c1ccccc1)NC(NC(=S)Nc1ccc(Cl)cc1)C(Cl)(Cl)Cl", "note": "(stereo not shown) [Sal003]", "values": [{"measurement": "METTL3 level", "setting": "METTL3 [1]", "result": "increased"}, {"measurement": "METTL14 level", "setting": "METTL14 [2]", "result": "increased"}, {"measurement": "elF2α phosphorylation", "setting": "phospho-elF2α [3]", "result": "prevented dephosphorylation"}, {"measurement": "non-canonical translation of ATF4", "setting": "ATF4; MCF7 cells, agent alone", "result": "induced"}, {"measurement": "m6A on RNA", "setting": "m6A on RNA", "result": "increased"}, {"measurement": "METTL3 mRNA on polysomes compared to monosomes", "setting": "METTL3 mRNA", "result": "increased"}, {"measurement": "PARP1 level", "setting": "PARP1", "result": "increases"}]}, {"compound": "Nc1ccn([C@@H]2O[C@H](CO)[C@@H](O)[C@@H]2O)c(=O)n1", "note": "[Cytarabine]", "values": [{"measurement": "METTL3 level", "setting": "METTL3 [4]", "result": "transient increase"}, {"measurement": "elF2α phosphorylation", "setting": "phospho-elF2α [5]", "result": "transient increase"}]}, {"compound": "CC(=O)NCCCCCCNC(C)=O", "note": "[HMBA]", "values": [{"measurement": "METTL3 level", "setting": "METTL3 [1]", "result": "increased"}, {"measurement": "METTL14 level", "setting": "METTL14 [2]", "result": "increases"}, {"measurement": "elF2α phosphorylation", "setting": "phospho-elF2α [3]", "result": "elF2α phosphorylation"}, {"measurement": "Hexim1 level", "setting": "Hexim1", "result": "increased"}]}, {"compound": "COc1cccc2c1C(=O)c1c(O)c3c(c(O)c1C2=O)C[C@@](O)(C(=O)CO)C[C@@H]3O[C@H]1C[C@H](N)[C@H](O)[C@H](C)O1", "note": "[doxorubicin]", "values": [{"measurement": "METTL3 level", "setting": "METTL3 [1]", "result": "increases"}, {"measurement": "METTL3 level", "setting": "METTL3 [6]", "result": "transient increase"}, {"measurement": "elF2α phosphorylation", "setting": "phospho-elF2α [3]", "result": "phosphorylated over time"}, {"measurement": "elF2α phosphorylation", "setting": "phospho-elF2α [7]", "result": "transient increase"}, {"measurement": "m6A on RNA", "setting": "m6A on RNA", "result": "more m6A modified RNA"}, {"measurement": "METTL3 level", "setting": "METTL3 [8]", "result": "increased"}, {"measurement": "METTL3 level", "setting": "METTL3 [9]", "result": "increases"}, {"measurement": "labeled (newly translated) METTL3, nascent translation assay", "setting": "METTL3 mRNA; Click-it Puro labeling, METTL3 immunoprecipitation, treated vs untreated", "result": "increase"}, {"measurement": "METTL3 and METTL14 RNA levels by qPCR", "setting": "METTL3 mRNA; doxorubicin treated vs untreated cells", "result": "no increase"}, {"measurement": "METTL3 mRNA on polysomes compared to monosomes", "setting": "METTL3 mRNA", "result": "increased"}, {"measurement": "PARP1 level", "setting": "PARP1", "result": "increases"}, {"measurement": "METTL3 5′UTR luciferase reporter translation", "setting": "METTL3 5′UTR", "result": "enhanced translation"}, {"measurement": "HuR level", "setting": "HuR", "result": "increase"}, {"measurement": "METTL14 level", "setting": "METTL14 [10]", "result": "Increase"}]}, {"compound": "poly I:C", "values": [{"measurement": "METTL3 level", "setting": "METTL3 [1]", "result": "increase"}, {"measurement": "METTL14 level", "setting": "METTL14 [2]", "result": "increase"}, {"measurement": "elF2α phosphorylation", "setting": "phospho-elF2α [3]", "result": "induces"}, {"measurement": "m6A on RNA", "setting": "m6A on RNA", "result": "increased"}, {"measurement": "Hexim1 level", "setting": "Hexim1", "result": "increases"}]}, {"compound": "O=C(COc1ccc(Cl)cc1)NC1CCC(NC(=O)COc2ccc(Cl)cc2)CC1", "note": "(stereo not shown) [ISRIB]", "values": [{"measurement": "METTL3 level in doxorubicin treated cells co-treated with agent", "setting": "METTL3 [1]; [12]", "result": "do not show increase"}, {"measurement": "METTL14 level in doxorubicin treated cells co-treated with agent", "setting": "METTL14 [2]; doxorubicin treated cells plus agent (FIGS. 3D and 3E)", "result": "prevent"}, {"measurement": "ATF4 level in doxorubicin treated cells co-treated with agent", "setting": "ATF4; [12]", "result": "do not show increase"}, {"measurement": "doxorubicin chemosurvival with co-treatment", "setting": "MCF7 cells", "result": "significant decrease"}, {"measurement": "survival of treated cancer cells co-cultured with immune cells", "setting": "[11]", "result": "loss of survival"}]}]}
